Experimental data published in patent publication US9241972B2, “Use of Wnt agents to prevent hypoxic injury” (THE BOARD OF TRUSTEES OF THE LELAND STANFORD JUNIOR …, priority 2011, dated 2016).
“Also recorded” adds a separate entry of the source.

What was measured:
β-catenin/TCF signaling = assay: β-catenin/TCF luciferase reporter assay in AML12 hepatocytes; type: cell-based
Protocol: (§1) The differentiated non-transformed mouse hepatocyte cell line AML12 (ATCC Inc.) was cultured in Dulbecco's […] (DMEM)/F-12 media (1:1) supplemented with 10% fetal bovine serum (FBS), 1% penicillin-streptomycin antibiotics and 5 μg/ml insulin, 5 μg/ml transferrin, 5 ng/ml selenium as previously described (62). The human hepatocellular carcinoma cell lines Huh7 and HepG2 were grown in DMEM media containing 10% FBS and 1% penicillin-streptomycin antibiotics. Media was purchased from Hyclone (Logan, Utah). All other medium components were purchased from Invitrogen (Carlsbad, Calif.). Cultures were maintained at 37° C. in a hunified 5% CO2 atmosphere. For hypoxic conditions, cells were grown at 1% O2 in a custom-designed incubator (XVivo Hypoxia Chamber; BioSpherix) for 24 hrs.
Western Blot Analysis and Immunoprecipitation. Cells were treated with actinomycin D and TNFα, hydrogen peroxide (H2O2), hypoxia 1% for 24 hours or pre-treated with N-acetylcysteine (NAC), cobalt chloride (CoCl2), YC-1 (Alexis Biochemicals, San Diego, Calif.), Resveratrol or nicotinamide (NAM) as described in the figure legends. All other chemicals were purchased from Sigma Aldrich (Sigma Aldrich, St. Louis, Mo.). Total proteins (30 μg) were lysed with RIPA lysis buffer and separated by sodium dodecylsulfate-polyacrylamide gel electrophoresis. After transfer, the polyvinylidene diflouride membrane was blocked with 5% non-fat milk in Tris-buffered saline with 0.1% Tween-20 (TBST) and then incubated with primary antibodies at 4° C. overnight. After washing, the horseradish peroxidase-conjugated secondary antibodies were added for 30 minutes at room temperature. Antibody binding was visualized by enhanced chemiluminescence reagent (GE Healthcare BioSciences, Buckinghamshire, United Kingdom).
For the reporter assay, cells were seeded in a 24-well plate under triplicate conditions at 80% confluency. Cells were transfected the next day with plasmid pMegaTOPFLASH and pMegaFOPFLASH (β-catenin reporter construct containing LEF1/TCF binding sites) or 5×-HRE (hypoxia response element) and 1 μg of pEF1/Myc-His/LacZ plasmid using Lipofectamine 2000 (Invitrogen, Carlsbad, Calif.). Six hours after transfection, the media was replaced with DMEM/F12 media. 24 hours after transfection, cells were either pre-treated with drugs for one hour or incubated in hypoxia 1% for 24 hours as mentioned in the figure legends. After 2 days, luciferase and galactosidase expression were measured using the Dual-Light Reporter Gene Assay (Applied Biosystems, Foster City, Calif.) according to the manufacturer's instructions. Luciferase activity was normalized to β-galactosidase activity as an internal transfection control.

HIF-1 = HIF-1 / HRE luciferase reporter assay (and HIF-1α immunoblot) in AML12 hepatocytes; type: cell-based, mouse
Protocol: as §1
Western Blot Analysis and Immunoprecipitation. […]
For the reporter assay, cells were seeded in a 24-well plate under triplicate conditions at 80% confluency. […] After 2 days, luciferase and galactosidase expression were measured using the Dual-Light Reporter Gene Assay (Applied Biosystems, Foster City, Calif.) according to the manufacturer's instructions. […]

AML12 hepatocytes [1] = assay: Intracellular ROS levels by DCF-DA flow cytometry; type: cell-based, mouse; conditions: one hour pre-treatment with NAC (2 mmol/L)
Protocol: as §1, with “hrs. The fluorescent probe, dichlorofluorescein diacetate (DCF-DA) (Invitrogen, Carlsbad, Calif.), was used to monitor the intracellular generation of ROS induced by hypoxia. After cells were incubated with 10 μmol/l DCF-DA for 30 min as previously described (67), cells were trypsinized, pelleted by centrifugation and resuspended in phosphate-buffered saline for FACS analysis by using a FACS LSRII flow cytometer (Becton Dickinson, San Diego, Calif.). The oxidized form of DCF-DA was excited at 488 nm and detected at 530 nm. Data were analyzed using CellQuest software.” for “hrs.”

AML12 hepatocytes [2] = assay: Apoptosis under hypoxia by MTT assay and immunoblot for caspase-cleaved K18Asp237; type: cell-based, mouse; conditions: YC-1 pre-treatment (100 μmol/L) for 1 hour
Protocol: Western Blot Analysis and Immunoprecipitation. Cells were treated with actinomycin D and TNFα, hydrogen peroxide (H2O2), hypoxia 1% for 24 hours or pre-treated with N-acetylcysteine (NAC), cobalt chloride (CoCl2), YC-1 (Alexis Biochemicals, San Diego, Calif.), Resveratrol or nicotinamide (NAM) as described in the figure legends. All other chemicals were purchased from Sigma Aldrich (Sigma Aldrich, St. Louis, Mo.). Total proteins (30 μg) were lysed with RIPA lysis buffer and separated by sodium dodecylsulfate-polyacrylamide gel electrophoresis. […]
For the assessment of cell proliferation and survival, a commercially available MTT (3-(4,5-dimethylthiazol-2-yl)-2,5-diphenyltetrazolium bromide) cell proliferation assay (Roche Applied Science, Indianapolis, Ind.) was used according to the manufacturer instructions. Absorbance was measured at 570 nm using a spectrophotometer.
Apoptosis was measured by western blot using Asp237 antibody that recognizes caspase-cleaved keratin18 or by using Caspase-Glo 3/7 Assay following the manusfacturer's instructions (Promega Corporation, Madison, Wis.). […] Caspase-Glo 3/7 reagent was added to each well in a 1:1 ratio and incubated for one hour before measuring luminescence using a LB96B dual injector luminometer (Berthold Technologies, Oak Ridge, Tenn.).

With `[Cl][Co][Cl]` [CoCl2, cobalt chloride] the “β-catenin/TCF reporter activity after HIF-1α stabilization” value (β-catenin/TCF signaling; AML12 hepatocytes, CoCl2 (150 μmol/L) under normoxia or hypoxia) was “significant reduction in TCF signal transduction; also recorded: reduced” and the “HIF-1α induction (HRE reporter assay and immunoblot)” value (HIF-1; CoCl2 (150 μmol/L)) was “HIF-1α induction was verified”.
With `CC(=O)N[C@@H](CS)C(=O)O` [NAC, N-acetylcysteine] the “β-catenin/TCF signaling (reporter activity) under hypoxia” value (β-catenin/TCF signaling; AML12 hepatocytes, hypoxia, one hour pre-treatment with NAC (2 mmol/L)) was “diminish the suppressive effect of hypoxia derived ROS on β-catenin/TCF signal transduction; also recorded: prevents hypoxia-induced inhibition of β-catenin/TCF signaling” and the “Intracellular ROS levels under hypoxia” value (AML12 hepatocytes [1]) was “decrease intracellular ROS; also recorded: significantly prevents ROS production under hypoxia”.
In the case of `NC(=O)c1cccnc1` [NAM, nicotinamide], the “Hypoxia-induced suppression of TCF signaling (Sirt1 inhibition)” value (β-catenin/TCF signaling; hepatocytes under hypoxia, addition of Sirt1 inhibitor) is reported as “abolished this effect”.
In the case of `OCc1ccc(-c2nn(Cc3ccccc3)c3ccccc23)o1` [YC-1, 3-(5′-hydroxymethyl-2′-furyl)-1-benzylindazole], the “Apoptosis under hypoxia (MTT assay, caspase-cleaved K18Asp237)” value (AML12 hepatocytes [2]) is reported as “induced significant apoptosis; also recorded: more apoptosis” and the “HIF-1 signal activity (HRE reporter) under hypoxia” value (HIF-1; hypoxia, pre-treatment with YC-1 (100 μmol/L) for 1 hour) is reported as “significantly reduced HRE activity; also recorded: inhibits the hypoxia-induced increase in HIF-1 signal activity”.
`Oc1ccc(C=Cc2cc(O)cc(O)c2)cc1` [resveratrol] was tested, and the “β-catenin/TCF signal transduction (Sirt1 agonist)” value (β-catenin/TCF signaling; hepatocytes, Sirt1 agonist) was “significantly inhibited β-catenin/TCF signal transduction”.
